Assay results published in patent publication US7550451B2, “Progesterone receptor modulators with increased antigonadotropic activity for female birth control and hormone replacement therapy” (Bayer Schering Pharma AG, priority 2002, dated 2009).

How the values were obtained:
Progesterone receptor = target: T1, Progesterone receptor (Oryctolagus cuniculus, UniProt P06186); assay: Receptor binding affinity, progesterone receptor (competitive binding, 3H-ORG 2058); conditions: Progesterone = 100%; uterus cytosol of estradiol-primed rabbit
T1 construct: Uterus cytosol of the estradiol-primed rabbit; from tissue; host or cells: uterus cytosol of estradiol-primed rabbit
T1 sequence (P06186 1-930): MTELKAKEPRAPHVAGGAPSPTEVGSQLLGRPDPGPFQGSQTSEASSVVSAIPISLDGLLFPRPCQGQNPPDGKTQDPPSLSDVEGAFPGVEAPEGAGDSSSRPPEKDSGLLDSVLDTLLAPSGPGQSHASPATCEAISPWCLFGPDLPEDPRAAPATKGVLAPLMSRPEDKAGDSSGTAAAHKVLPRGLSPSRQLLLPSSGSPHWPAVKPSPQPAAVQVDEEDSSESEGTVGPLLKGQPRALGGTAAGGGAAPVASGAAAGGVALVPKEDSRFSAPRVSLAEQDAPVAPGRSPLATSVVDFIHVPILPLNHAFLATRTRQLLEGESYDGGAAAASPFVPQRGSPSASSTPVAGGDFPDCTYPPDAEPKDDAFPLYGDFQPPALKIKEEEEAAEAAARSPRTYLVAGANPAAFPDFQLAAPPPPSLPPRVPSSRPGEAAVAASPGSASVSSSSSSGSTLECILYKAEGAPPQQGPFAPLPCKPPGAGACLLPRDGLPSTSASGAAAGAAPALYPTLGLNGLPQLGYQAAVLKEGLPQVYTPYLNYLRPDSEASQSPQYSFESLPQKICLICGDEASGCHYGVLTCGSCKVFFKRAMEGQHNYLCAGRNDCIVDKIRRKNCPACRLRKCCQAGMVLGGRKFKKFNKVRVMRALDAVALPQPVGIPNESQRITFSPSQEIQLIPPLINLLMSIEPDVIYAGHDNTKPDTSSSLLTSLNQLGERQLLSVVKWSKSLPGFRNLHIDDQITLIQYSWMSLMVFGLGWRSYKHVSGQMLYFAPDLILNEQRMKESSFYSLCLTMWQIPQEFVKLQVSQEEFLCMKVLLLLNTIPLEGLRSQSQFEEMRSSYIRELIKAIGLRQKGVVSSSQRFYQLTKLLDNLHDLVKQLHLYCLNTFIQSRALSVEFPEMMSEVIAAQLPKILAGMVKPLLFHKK
Procedure: (§1) The receptor binding affinity was determined by competitive binding of a specifically binding ^3H-labeled hormone (tracer) and the compound to be tested on receptors in the cytosol from animal target organs. In this case, receptor saturation and reaction equilibrium were sought.
(§2) The tracers and increasing concentrations of the compound to be tested (competitor) were co-incubated with the receptor-containing cytosol fraction at 0-4° C. over 18 hours. After separation of the unbonded tracer with carbon-dextran suspension, the receptor-bonded tracer portion was measured for each concentration, and the IC50 was determined from the concentration sequence. As a quotient of the IC50 values of the reference substance and the compound to be tested (×100%), the relative molar binding affinity (RBA) was calculated (RBA of the reference substance=100%).
Uterus cytosol of the estradiol-primed rabbit; homogenized in TED buffer (20 mmol of Tris/HCl, pH 7.4; 1 mmol of ethylenediamine tetraacetate, 2 mmol of dithiothreitol) with 250 mmol of saccharose; stored at −30° C. Tracer: ^3H-ORG 2058, 5 nmol; reference substance: progesterone.

Glucocorticoid receptor = target: T2, Glucocorticoid receptor (Rattus norvegicus, UniProt P06536); assay: Receptor binding affinity, glucocorticoid receptor (competitive binding, 3H-dexamethasone); conditions: Dexamethasone = 100%; thymus cytosol of adrenalectomized rat
T2 construct: Thymus cytosol of the adrenalectomized rat; from tissue; host or cells: thymus cytosol of adrenalectomized rat
T2 sequence (P06536 1-795): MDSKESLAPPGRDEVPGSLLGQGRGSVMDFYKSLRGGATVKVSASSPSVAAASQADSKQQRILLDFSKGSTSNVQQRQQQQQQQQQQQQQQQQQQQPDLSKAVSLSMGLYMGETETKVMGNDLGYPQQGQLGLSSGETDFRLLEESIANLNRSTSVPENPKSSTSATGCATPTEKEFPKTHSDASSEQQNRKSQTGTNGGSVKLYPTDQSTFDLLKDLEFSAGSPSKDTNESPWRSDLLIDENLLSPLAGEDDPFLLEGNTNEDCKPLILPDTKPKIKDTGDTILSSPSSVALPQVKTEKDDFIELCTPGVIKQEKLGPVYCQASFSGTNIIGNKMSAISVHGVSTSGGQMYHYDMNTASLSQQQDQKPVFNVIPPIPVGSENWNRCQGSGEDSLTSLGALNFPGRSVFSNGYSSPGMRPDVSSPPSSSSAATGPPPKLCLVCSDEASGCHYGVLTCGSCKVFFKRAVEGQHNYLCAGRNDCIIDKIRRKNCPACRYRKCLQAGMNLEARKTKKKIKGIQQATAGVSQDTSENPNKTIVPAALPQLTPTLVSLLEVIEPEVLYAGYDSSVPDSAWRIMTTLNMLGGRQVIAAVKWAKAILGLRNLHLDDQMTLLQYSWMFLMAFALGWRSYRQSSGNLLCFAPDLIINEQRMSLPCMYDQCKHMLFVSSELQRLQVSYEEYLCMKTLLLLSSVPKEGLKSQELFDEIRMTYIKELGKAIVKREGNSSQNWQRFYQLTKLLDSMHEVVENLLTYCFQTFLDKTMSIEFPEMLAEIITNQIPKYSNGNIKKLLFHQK
Procedure: as §1, §2
Thymus cytosol of the adrenalectomized rat, thymi stored at −30° C.; buffer: TED. Tracer: ^3H-Dexamethasone, 20 nmol; reference substance: dexamethasone.

Androgen receptor = target: T3, Androgen receptor (Rattus norvegicus, UniProt P15207); assay: Receptor binding affinity, androgen receptor (competitive binding, 3H-metribolone); conditions: prostate cytosol of castrated rat; for AR relative molar binding affinity (RBA) a) against RU 1881: reference RU 1881 (metribolone); for AR relative molar binding affinity (RBA) b) against dihydrotestosterone (DHT): reference dihydrotestosterone
T3 construct: Prostate cytosol of the castrated rat; from tissue; host or cells: prostate cytosol of castrated rat
T3 sequence (P15207 1-902): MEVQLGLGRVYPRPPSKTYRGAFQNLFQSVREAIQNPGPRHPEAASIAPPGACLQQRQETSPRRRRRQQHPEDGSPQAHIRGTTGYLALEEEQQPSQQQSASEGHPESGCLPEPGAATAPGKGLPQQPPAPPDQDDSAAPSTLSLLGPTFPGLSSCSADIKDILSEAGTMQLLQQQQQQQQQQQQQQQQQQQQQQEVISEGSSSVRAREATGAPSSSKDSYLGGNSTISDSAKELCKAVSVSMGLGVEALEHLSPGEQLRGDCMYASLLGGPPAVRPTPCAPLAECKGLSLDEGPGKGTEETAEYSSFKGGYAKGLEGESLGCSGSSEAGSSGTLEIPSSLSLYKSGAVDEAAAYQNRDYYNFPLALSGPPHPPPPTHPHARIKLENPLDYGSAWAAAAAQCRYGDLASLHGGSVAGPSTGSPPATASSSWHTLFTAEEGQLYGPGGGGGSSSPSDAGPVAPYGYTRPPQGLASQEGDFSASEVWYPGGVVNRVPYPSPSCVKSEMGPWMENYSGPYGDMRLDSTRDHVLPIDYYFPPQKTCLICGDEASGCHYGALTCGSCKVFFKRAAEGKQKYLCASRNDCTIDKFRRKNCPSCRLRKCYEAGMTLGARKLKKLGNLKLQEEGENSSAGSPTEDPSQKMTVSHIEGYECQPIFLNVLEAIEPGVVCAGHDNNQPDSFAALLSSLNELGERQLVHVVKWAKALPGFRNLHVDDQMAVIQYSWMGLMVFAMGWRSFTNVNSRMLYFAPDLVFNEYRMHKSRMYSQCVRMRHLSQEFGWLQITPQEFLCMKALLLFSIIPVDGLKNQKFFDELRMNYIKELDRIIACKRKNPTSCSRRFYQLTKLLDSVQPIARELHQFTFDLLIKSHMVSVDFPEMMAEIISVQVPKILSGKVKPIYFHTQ
Procedure: as §1, §2
Prostate cytosol of the castrated rat; prostates stored at −30° C.; buffer: TED with 10% glycerol as well as 2 μmol of triamcinolone acetonide. Tracer: ^3H-metribolone 4 nmol; reference substances: metribolone (RU 1881) or 5α-dihydrotestosterone.

Row | Molecule | PR relative molar binding affinity (RBA) (Progesterone receptor) [%] | GR relative molar binding affinity (RBA) (Glucocorticoid receptor) [%] | AR relative molar binding affinity (RBA) a) against RU 1881 (Androgen receptor) | AR relative molar binding affinity (RBA) b) against dihydrotestosterone (DHT) (Androgen receptor)
1 | CC(=O)OC1CCC2C3CCC4=CC(=O)CCC4=C3C(c3ccc(C=NO)cc3)CC12C (stereo not drawn) [Example 3, 4-(17β-Acetoxy-3-oxoestra-4,9-dien-11β-yl)benzaldehyde-1-(E)-oxime] | 20 | 12 | – | –
2 | CC12CC(c3ccc(C=NO)cc3)C3=C4CCC(=O)C=C4CCC3C1CCC2(O)CBr (stereo not drawn) [Example 10, 4-(17α-Bromomethyl-17β-hydroxy-3-oxoestra-4,9-dien-11β-yl)benzaldehyde-1(E)-oxime] | 21 | 3 | a) 0.6% | b) 0.9%
3 | CC12CC(c3ccc(C=NO)cc3)C3=C4CCC(=O)C(Br)=C4CCC3C1CCC2O (stereo not drawn) [Example 19, 4-(4′-Bromo-17β-hydroxy-3-oxoestra-4,9-dien-11β-yl)benzaldehyde-1(E)-oxime] | 51 | 0.5 | a) 9% | b) 16%
4 | CCNC(=O)O/N=C/c1ccc([C@H]2C[C@@]3(C)[C@@H](CC[C@]3(C)O)[C@@H]3CCC4=CC(=O)CCC4=C32)cc1 [Example 9, 4-[17β-Hydroxy-17α-methyl-3-oxoestra-4,9-dien-11β-yl]benzaldehyde-1-(E)-[O-(ethylamino)-carbonyl]oxime] | 161 | 25 | a) 15% | b) 23%
5 | CC12CC(c3ccc(C=NO)cc3)C3=C4CCC(=O)C=C4CCC3C1CCC2OCc1ccccc1 (stereo not drawn) [Example 17, 4-(17β-Benzyloxy-3-oxoestra-4,9-dien-11β-yl)benzaldehyde-1(E)-oxime] | 31 | 8 | a) 2% | b) 3%
6 | 4-(4′-Bromo-17β-methoxy-3-oxoestra-4,9-dien-11β-yl)benzaldehyde-1(E)-oxime [Example 7] | 110 | 0.69 | a) 8.7% | b) 13.2%
7 | CCNC(=O)O/N=C/c1ccc([C@H]2C[C@]3(C)[C@@H](O)CC[C@H]3[C@@H]3CCC4=CC(=O)CCC4=C32)cc1 [Example 11, 4-[17β-Hydroxy-3-oxoestra-4,9-dien-11β-yl]benzaldehyde-1-(E)-[O-(ethylamino)-carbonyl]oxime] | 34 | 10 | a) 10% | b) 15%
8 | CCNC(=O)O[C@H]1CC[C@H]2[C@@H]3CCC4=CC(=O)CCC4=C3[C@@H](c3ccc(/C=N/O)cc3)C[C@]12C [Example 4, 4-[17β-(N-Ethylamino)carbonyloxy-3-oxoestra-4,9-dien-11β-yl]benzaldehyde-1(E)-oxime] | 13 | 11 | a) 2.9% | b) 4.5%
9 | CC(=O)O/N=C/c1ccc([C@H]2C[C@]3(C)[C@@H](OC(C)=O)CC[C@H]3[C@@H]3CCC4=C(Br)C(=O)CCC4=C32)cc1 [Example 14, 4-(17β-Acetoxy-4′-bromo-3-oxoestra-4,9-dien-11β-yl)benzaldehyde-1-(E)-O-acetyloxime] | 23 | 0.3 | a) 6% | b) 10%
10 | C[C@]12C[C@H](c3ccc(/C=N/O)cc3)C3=C4CCC(=O)C=C4CC[C@H]3[C@@H]1CC[C@@H]2OC(=O)c1ccccc1 [Example 16] | 8 | 3 | a) 1.4% | b) 2.2%
11 | CCNC(=O)O/N=C/c1ccc([C@H]2C[C@@]3(C)[C@@H](CC[C@@]3(O)CO)[C@@H]3CCC4=CC(=O)CCC4=C32)cc1 [Example 20, 4-[17β-Hydroxy-17α-hydroxymethyl-3-oxoestra-4,9-dien-11β-yl]benzaldehyde-1-(E)-[O-(ethylamino)-carbonyl]oxime] | 12 | 5 | a) 4% | b) 7%
